Series [1] deals with Trichoderma viride (KCTC 16992). The conditions noted are these: KCTC 16992, 48 h, pH 6.
In a further series the test system is HaCaT cells. Put plainly: Cytotoxicity (MTT assay). It counts as cell-based. The following applies: at 3.13 µM, 24 h. In general terms: Tetrazolium dyes change colour on reduction, which living cells bring about.
The test system of series [2] is F. graminearum (KCTC 16656). The conditions noted are these: KCTC 16656, 48 h, pH 6.
For another series, the system named is C. krusei (CCARM 14017). The conditions noted are these: CCARM 14017, 48 h, pH 6.
In series [3] the test system is Tricophyton rubrum (KCTC 6345). The conditions noted are these: KCTC 6345, 48 h, pH 6.
Series [4] has as its system C. albicans (CCARM 14004, fluconazole-resistant strain). The following applies: CCARM 14004, 48 h, pH 6.
Series [5] concerns C. gloeosporioides (KCTC 6169). The conditions noted are these: KCTC 6169, 48 h, pH 6.
The subject of series [6] is C. albicans (CCARM 14001, fluconazole-resistant strain). The conditions noted are these: CCARM 14001, 48 h, pH 6.
The test system of the next series is C. albicans (KCTC 7270). The following applies: KCTC 7270, 48 h, pH 6.
Series [7] concerns F. oxysporum (KCTC 16909). The following applies: KCTC 16909, 48 h, pH 6.
Series [8] deals with C. albicans (CCARM 14020, fluconazole-resistant strain). The conditions noted are these: CCARM 14020, 48 h, pH 6.
A short description of series [9]: Calcein leakage, artificial mammalian model membrane. The following applies: PC/Ch/SM (1:1:1) LUVs, 10 μM lipids. As to the method: The dried lipids were prehydrated with dye buffer solution (80 mM calcein, 10 mM MES, 50 mM NaCl, pH 6.2), vortexed for 1 min, and incubated for 30 min at 50 °C. The suspension was freeze-thawed in liquid nitrogen for nine cycles to generate large unilamellar vesicles (LUVs) and extruded 30 times through polycarbonate filters (two stacked 0.2-μm pore-size filters) using an Avanti Mini-Extruder (Avanti Polar Lipids Inc., Alabaster, AL, USA). Calcein-entrapped vesicles were separated from free calcein by gel filtration chromatography on a Sephadex G-50 column. Entrapped LUVs in suspensions containing 10 μM lipids were incubated with various concentrations of the peptide. The fluorescence of the released calcein was assessed with a microtiter SpectraMax M5 reader at an excitation wavelength of 480 nm and an emission wavelength of 520 nm. Complete (100%) release was achieved via the addition of Triton X-100 to a final concentration of 0.1% (v/v). The apparent percentage of calcein release was calculated in accordance with the following equation: Release (%) = 100 × (F − F0)/(Ft − F0) (2) where F and Ft represent the fluorescence intensity after the addition of the peptides and Triton X-100, respectively, and F0 represents the fluorescence of the intact vesicles.

The subject of series [10] is C. parapsilosis (CCARM 14016). The following applies: CCARM 14016, 48 h, pH 6.
For another series, the system named is F. solani (KCTC 6326). The following applies: KCTC 6326, 48 h, pH 6.
In series [11] the test system is C. albicans (CCARM 14007, amphotericin B-resistant strain). The following applies: CCARM 14007, 48 h, pH 6.
In series [12] the test system is F. moniliforme (KCTC 6149). The conditions noted are these: KCTC 6149, 48 h, pH 6.
For series [13], the system named is Aspergillus flavus (KCTC 6905). The following applies: KCTC 6905, 48 h, pH 6.
Series [14] concerns Trichoderma virens (KCTC 16924). The conditions noted are these: KCTC 16924, 48 h, pH 6.
Series [15] deals with drug-resistant C. albicans strains (CCARM 14001, 14004, 14007, and 14020). The format is cell-based. The following applies: at 256 µM; CCARM 14001, 14004, 14007, 14020; data not shown.
For series [16], the system named is C. albicans cells. The series is described as follows: Intracellular ROS (DCFH-DA, flow cytometry). It counts as cell-based. The conditions noted are these: peptides at MICs or 10 mM H2O2 for 6 h, DCFH-DA 20 min. The protocol:
DCF fluorescence was measured using 5000 events/sample following excitation with a 488-nm wavelength laser and reading through a 525/40 biopass filter using a CytoFLEX flow cytometer.
A general note: A flow cytometer gives signals particle by particle.

In another series the test system is C. albicans. The conditions noted are these: peptides at MICs for 6 h, measured at 550 nm.
Series [17] deals with C. albicans cells. Put plainly: SYTOX Green uptake (flow cytometry). The following applies: peptides at MICs for 30 min, 0.5 μM SYTOX Green pre-incubated 15 min. It counts as cell-based. As to the method: C. albicans cells were pre-incubated with 0.5 μM SYTOX Green for 15 min in the dark, incubated with the indicated peptides at MICs for 30 min, and then analyzed using a CytoFLEX flow cytometer (Beckman Coulter Inc., Brea, CA, USA).

Converted amounts (≈) assume the structure as drawn.

What is called MIC is the lowest concentration that inhibits growth of the organism. Lower therefore signals a more susceptible organism. As for `CC[C@H](C)[C@H](NC(=O)CN)C(=O)NCC(=O)N[C@@H](C)C(=O)N[C@H](C(=O)N[C@@H](CC(C)C)C(=O)N[C@@H](CCCCN)C(=O)N[C@H](C(=O)N[C@@H](CC(C)C)C(=O)N[C@H](C(=O)N[C@H](C(=O)NCC(=O)N[C@@H](CC(C)C)C(=O)N1CCC[C@H]1C(=O)N[C@@H](C)C(=O)N[C@@H](CC(C)C)C(=O)N[C@H](C(=O)N[C@@H](CO)C(=O)N[C@@H](Cc1c[nH]c2ccccc12)C(=O)N[C@H](C(=O)N[C@@H](CCCCN)C(=O)N[C@@H](CCCNC(=N)N)C(=O)N[C@@H](CCCCN)C(=O)N[C@@H](CCCNC(=N)N)C(=O)N[C@@H](CCC(N)=O)C(=O)N[C@@H](CCC(N)=O)C(N)=O)[C@@H](C)CC)[C@@H](C)CC)[C@@H](C)O)[C@@H](C)O)C(C)C)C(C)C` [Melittin, melittin, reference compound], the minimum inhibitory concentration (MIC) in series [1] was 4 µM (≈ 11.4 µg/mL); in series [2], 8 µM (≈ 22.8 µg/mL); against C. krusei (CCARM 14017), 8 µM (≈ 22.8 µg/mL); in series [3], 8 µM (≈ 22.8 µg/mL); in [4], 8 µM (≈ 22.8 µg/mL); in [5] it was 16 µM (≈ 45.5 µg/mL). For the same compound, the minimum inhibitory concentration (MIC) (in series [6]; in the series with C. albicans (KCTC 7270); in series [7]; in [8]; in series [10]; against F. solani (KCTC 6326)) was 8 µM (≈ 22.8 µg/mL) each time. Also, the MIC in series [11] was found to be 8 µM (≈ 22.8 µg/mL); in series [12], 8 µM (≈ 22.8 µg/mL); in series [13] it was 8 µM (≈ 22.8 µg/mL); in series [14] it was 32 µM (≈ 91.1 µg/mL). This compound also had a cell death in the series with HaCaT cells of 100%. In addition, the “calcein leakage from mammalian artificial liposomes (in words)” value in series [9] is recorded as “concentration-dependent calcein leakage”.

As for `OC(Cn1cncn1)(Cn1cncn1)c1ccc(F)cc1F` [fluconazole], in series [15], the “antifungal activity against drug-resistant C. albicans strains” value is “inactive”.

As to `OO` [H2O2], in the series with C. albicans cells [16], the “intracellular ROS generation” value is reported as “high levels of ROS generation”.

Take histatin 5: in the series with C. albicans, the “relative cytochrome c levels in the cytosol” value is “only minor alterations”. Besides, the “SYTOX Green uptake (membrane permeabilization)” value in the series on C. albicans cells [17] is “did not induce membrane damage”.

(Values after paper PMC6321124, “Hydrophilic Linear Peptide with Histidine and Lysine Residues as a Key Factor Affecting Antifungal Activity” (International Journal of Molecular Sciences, 2018).)
